Laboratory results as given in US6613784B1, “Nitroxyderivatives having antinflammatory, analgesic and antithrombotic activity” (Nicox S.A., priority 1999, dated 2003).
Where two headings read alike, the source gives them in different places.

Columns and labels:
[1] = test system: rabbit aorta smooth muscle; test: Inhibition of smooth muscle contraction, rabbit aorta in organ bath; set-up: species or system New Zealand White Rabbits; conditions: Oryctolagus cuniculus, pre-contracted with phenylephrine (10 μM)
Description: (§1) New Zealand White Rabbits (2.0-2.5 kg) were killed by cervical dislocation, cavernosal tissue (corpus canvernosus) and aorta excised.
(§2) The tissue was mounted in organ baths for recording of isometric tension, according to the method described by Khan MA et al (BJU Int. 1999 84(6):720-4). Tissues were pre-contracted with phenylephrine (10 μM) and relaxation responses to carbachol assessed in the presence of the compound to be tested.
(§3) The compound of the invention used in the assay was 2-acetyloxybenzoic acid 6-(nitroxymethyl)-2-pyridinylmethyl ester hydrochloride (NCX 4050), which synthesis is described in preceding example 1.
(§4) The reference compound was 2-acetoxybenzoic acid (3-nitroxymethyl)phenyl ester of formula [drawing 34]

[2] = test system: rabbit corpus cavernosum smooth muscle; test: Inhibition of smooth muscle contraction, rabbit corpus cavernosum in organ bath; set-up: species or system New Zealand White Rabbits; conditions: Oryctolagus cuniculus, pre-contracted with phenylephrine (10 μM)
Description: as §1, §2, §3, §4

[3] = test system: human vascular smooth cell proliferation; test: Inhibition of smooth muscle cell proliferation (3H-thymidine); format: cell-based; conditions: 10% FCS
Description: Human saphenous veins were cultured by standard explant methods (J. Cardiovasc., Pharmacol. 1999, 33(2), 204-11). Tissues were collected into sterile pots containing PBS, penicillin and streptomycin. Under sterile tissue culture conditions, tissues were cut into small pieces (approximately 1 mg weight) and placed into a standard culture medium containing 20% fetal calf serum (FCS) for several days (medium changed every 2-4 days). ^3H-thymidine was measured in the DNA fraction of cells cultured into 48 well plates. Cells were cultured to confluence in the medium containing 10% FCS. Cells were deprived of serum for 24 h before the addition of 10% FCS, together with different concentration of steroids. After 24 h, ^3H-thymidine was added to the cells for 4 h. Cells were washed with phosphate buffered saline and ethanol. DNA was extracted with sodium hydroxide solution and the ^3H material counted by scintillation. The data represents observations made in triplicate wells.
Table 2 reports results obtained on the inhibitory effect of the tested compounds on human vascular smooth cell proliferation.

[4] = concentration (log M) −4, human saphenous vein cells
[5] = concentration (log M) −5, human saphenous vein cells

| SMILES | inhibition at 100 µM ([1]; concentration (log M) −4) [%] | inhibition at 10 µM ([1]; concentration (log M) −5, read-out: % inhibition rabbit aorta) [%] | inhibition at 10 µM ([2]; concentration (log M) −5, read-out: % inhibition rabbit corpus cav) [%] | % inhibition cell proliferation [3, 4] [%] | % inhibition cell proliferation [3, 5] [%] | inhibition at 10 µM ([1]; read-out: % inhibition rabbit aorta, concentration (log M) −5) [%] | inhibition at 10 µM ([2]; read-out: % inhibition rabbit corpus cav, concentration (log M) −4) [%] | inhibition at 10 µM ([2]; read-out: % inhibition rabbit corpus cav, concentration (log M) −5) [%] |
| --- | --- | --- | --- | --- | --- | --- | --- | --- |
| CC(=O)Oc1ccccc1C(=O)Oc1cccc(CO[N+](=O)[O-])c1 [NCX 4016, 2-acetoxybenzoic acid (3-nitroxymethyl)phenyl ester] | 20 | 18 | 14 | 60 | 43 | – | – | – |
| CC(=O)Oc1ccccc1C(=O)OCc1cccc(CO[N+](=O)[O-])n1.Cl [NCX 4050, 2-Acetyloxybenzoic Acid 6-(Nitroxymethyl)-2-pyridinylmethyl Ester Chlorhydrate] | – | – | – | 95 | 82 | 80 | 85 | 63 |
